This is an account of results in PMC6522473, “The Pseudomonas aeruginosa lectin LecB binds to the exopolysaccharide Psl and stabilizes the biofilm matrix” (Nature Communications, 2019).

SMILES strings stand for the structures.

Broadly, the Kd is a measure of binding affinity in units of concentration. A high value points to weaker binding.

The target of the test is T1, LecB (Pseudomonas aeruginosa, UniProt Q9HYN5).
T1 construct: purified LecB overexpressed in P. aeruginosa (lecB from PAO1, pJNLecB); homotetramer of 114 amino acid monomers
The test can be described thus: ITC ([…] K, three titrations). The test is classed as binding.

T1 sequence (Q9HYN5 entry or part of it): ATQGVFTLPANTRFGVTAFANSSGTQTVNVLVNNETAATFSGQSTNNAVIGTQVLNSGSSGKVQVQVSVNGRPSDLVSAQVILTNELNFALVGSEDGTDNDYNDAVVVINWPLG

In the case of `OC[C@H]1O[C@H](O[C@@H]2C(O)O[C@H](CO)[C@@H](O)[C@@H]2O)[C@@H](O)[C@@H](O)[C@@H]1O` (stereo partly drawn) [α-1,2′ mannobiose], the Kd came to 26.6 ± 2.61 µM.

`OC[C@H]1O[C@H](O[C@H]2[C@H](O)[C@@H](CO)OC(O)[C@H]2O)[C@@H](O)[C@@H](O)[C@@H]1O` (stereo partly drawn) [α-1,3′ mannobiose] had a Kd of 33.6 ± 7.18 µM.
